Data from patent US5686424A, “2-oxoethyl derivatives as immunosuppressants” (Miles Inc., priority 1995, dated 1997).
Like-named read-outs stand apart in the source and are kept apart here.

Key:
[1] = biological target: FKBP (Homo sapiens, UniProt P62942); assay: PPIase Inhibition Assay; format: biochemical
Method: 1) Inhibition of PPIase Activity
This assay follows in principle the procedure described in Kofron et al., 1991, Biochemistry 30:6127.
The three main reagents used are PPIase, a substrate for PPIase, and a selected inhibitor compound of the present invention. The basic principle behind this assay is the conversion of the cis isomer of the substrate to the trans form, which conversion is catalyzed by PPIase. Essentially, inhibition of this PPIase activity is measured for the selected compounds. A peptide chymotrypsin substrate containing a proline in the P2 position is only cleaved by chymotrypsin when the Phe-Pro bond is in the trans isomeric configuration. In the presence of excess chymotrypsin, all of the trans peptide isomers are cleaved within approximately five seconds, leaving only cis forms.
The cis peptide will spontaneously convert to the trans isomer at a slow rate. The cis to trans conversion is catalyzed by isomerases at a much faster rate than this spontaneous conversion. Proteins with PPIase activity are examples of such isomerases. After isomerization, the peptide is cleaved by chymotrypsin releasing p-nitroaniline which can be monitored at 390 nm. The rate of release is then calculated using a first order rate plus offset equation utilizing the ENZFITTER program (Leatherbarrow, BIOSOFT, Cambridge, United Kingdom).
In a plastic cuvette are added 950 ul of ice cold assay buffer (25 mM HEPES, pH 7.8, 100 mM NaCl), 10 uL of FKBP (2.5 uM in 10 mM Tris-Cl pH 7.5, 100 mM NaCl, 1 mM dithiothreitol), 25 ul of chymotrypsin (50 mg/ml in 1 mM HCl) and 10 ul of the test compound at various concentrations in dimethyl sulphoxide. The reaction is initiated by addition of 5 ul of substrate (Succinyl-Ala-Phe-Pro-Phe-para-nitroanilide, 5 mg/ml in 235 mM LiCl in trifluoroethanol).
The absorbance at 390 nm versus time is monitored for 90 sec using a Beckman DU70 spectrophotometer. The absorbance versus time data files are transferred to an IBM XT computer and the rate constants determined using the commercial enzfitter program. For each set of data, the uncatalyzed rate of conversion is measured and the uninhibited enzymatic rate determined. The data are expressed as % Activity remaining and are calculated as follows:
% Activity Remaining=(kobs -kuncat)/(kuninh
where kobs is the rate in the presence of a selected test compound, kuncat is the rate in the absence of enzyme, and kuninh is the rate in the presence of enzyme
Data was plotted as the velocity in the absence of the inhibitor (V-) divided by the velocity in the presence of inhibitor (V+) versus the inhibitor concentration. The IC50 can be determined following linear regression as the inhibitor concentration where

[2] = tested on: human T-cells; assay: Suppression of Human T-Cell Proliferation Assay (PHA-stimulated, [3H]-thymidine incorporation); format: cell-based; conditions: read-out: IC50
Description: 2) Human T Lymphocyte Inhibition
Inhibition of mitogen-induced T-cell proliferation can be used to profile immunosuppressive activity of test compounds. In the description of the assay which follows, mitogen-induced T-cell activation was used to test the inhibitory potencies of select compounds of the present invention.
In an assay similar to that described by Bradley in Mishell et al. (Eds.), 1980, Selected Methods in Cellular Immunology, pp 156-161, W. H. Freeman & Co., San Fransisco, Calif., T-cells were stimulated by incubation with phytohemagglutinin (PHA) which binds to cell surface molecules, including the T-cell receptor. This stimulation results in proliferation which can be measured by incorporation of [^3 H]-thymidine into cellular DNA.
The immunosuppressive properties of the compounds of the present invention can be determined by adding various concentrations of the compounds to these cultures and measuring the effect on T-cell proliferation.
Suppression of Human T-Cell Proliferation Assay
Fresh LeukoPaks were obtained from the New York Blood Center, New York, N.Y. The cells, including erythrocytes and leukocytes, were diluted with Hank's Balanced Salt Solution (HBSS) (GIBCO, Grand Island, N.Y.) and layered over Lymphoprep (Nycomed Pharma AS, Oslo, Norway) in sterile 50 ml conical centrifuge tubes. Lymphocytes were isolated at the Hank's/Nycomed interface after centrifugation at 2000×g, 4° C. for 15 min. The lymphocytes were washed with Minimal Essential Medium (GIBCO) containing 2% fetal bovine serum (FBS) (Sigma Chemical Co., St. Louis, Mo.), 1% HEPES buffer (GIBCO) and 1% Penicillin-Stretomycin solution (GIBCO).
T-cells were further purified essentially by sheep erythrocyte (SRBC) rosetting as described by Morimoto et al., 1983, J. Immunol. 130:157. The isolated lymphocytes were adjusted to 2×10^7 cells/ml and 5 ml aliquots of the cell suspension were incubated for 10 minutes at room temperature with 5 ml of a 5% SRBC (Cappel, Organon Technika Corp., West Chester, Pa.) suspension. The cells were gently pelleted by centrifugation at 300 rpm for 10 minutes, followed by a 1 hour incubation at room temperature to allow rosette formation. The cells were gently resuspended,layered over Lymphoprep and centrifuged for 30 minutes at 500×g. The pellet, containing rosetted T-cells and SRBC was treated with ice cold buffered ammonium chloride (GIBCO) to lyse the erythrocytes. T-cells were washed twice with HBSS.
Purified T-cells were resuspended at 2×10^6 cells/ml in complete culture medium composed of RPMI-1640 (Whittaker Bioproducts, Walkerville, Md.) with 10% FBS (Sigma), 2 mM L-glutamine (GIBCO), 1% Penicillin-Streptomycin (GIBCO) and 15 mM HEPES (GIBCO). In 96-well plates (Becton Dickinson, Lincoln Park, N.J.), 0.1 ml aliquots of T-cell suspension were mixed with 0.05 ml of 40 μg/ml PHA-M (Sigma). The compounds of this invention were dissolved in dimethylsulfoxide at 10 mM and various dilutions in complete medium were added in duplicate wells (0.05 ml/well). The plates were incubated at 37° C. in a humidified atmosphere of 5% carbon dioxide and 95% air for 72 hours.
Proliferation was assessed by measurement of [^3 H]-thymidine incorporation. During the last 6 hours of incubation, the cells were pulse labelled with 1 μCi/well of [^3 H]-thymidine (New England Nuclear, Boston, Mass.). The cells were harvested onto glass fiber paper using a plate harvester and the radioactivity incorporated into cellular DNA corresponding to individual wells was measured by standard liquid scintillation counting methods.

[3] = concentration of inhibitor required for 50% inhibition of enzyme activity, FKBP, substrate Succinyl-Ala-Phe-Pro-Phe-para-nitroanilide, TABLE I
[4] = concentration inhibiting [3H]-thymidine incorporation of PHA-stimulated T-cells by 50%, 72 hours, TABLE 2

Sequence of FKBP (P62942 whole entry): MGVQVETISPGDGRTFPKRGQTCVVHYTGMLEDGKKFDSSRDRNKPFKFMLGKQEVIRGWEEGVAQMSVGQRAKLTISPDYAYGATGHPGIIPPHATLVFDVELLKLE

Row | Compound | IC50 [1, 3] [µM] | IC50 [2, 4] [µM] | IC50 [1] [µM] | IC50 [2] [µM]
1 | CC[C@H](C)[C@@H](C(=O)NCc1ccccc1)N(C)C(=O)[C@@H]1CCCN1CC(=O)OCc1ccccc1 [Example 22, L-Isoleucine, N-Methyl-N-[1-(2-Benzyloxy-2-Oxoethyl)-L-Prolyl] Benzylamide] | > 50 | 42 | – | –
2 | CC[C@H](C)[C@H](NC(=O)[C@@H]1CCCN1CC(=O)Nc1ccc(Cl)cc1Cl)C(=O)NCc1ccccc1 [Example 35, L-Isoleucine, N-[1-(2,4-Dichlorophenylcarbamoylmethyl)-L-Proline] Benzylamide] | > 5 | 43 | – | –
3 | CC[C@H](C)[C@H](NC(=O)[C@@H]1CCCN1CC(=O)N1CCC(c2ccccc2)CC1)C(=O)NCc1ccccc1 [Example 82, L-Isoleucine, N-[1-(2-(4-Phenylpiperidyl)-2-Oxoethyl)-L-Prolyl] Benzylamide] | < 5 | 20 | – | –
4 | CC[C@H](C)[C@H](NC(=O)[C@@H]1CCCN1CC(=O)c1ccc(OC)cc1)C(=O)NCc1ccccc1 [Example 15, L-Isoleucine, N-[1-(2-(4-Methoxylphenyl)-2-Oxoethyl)-L-Prolyl] Benzylamide] | < 50 | 17 | – | –
5 | CC[C@H](C)[C@H](NC(=O)[C@@H]1CCCCN1CC(=O)c1ccccc1)C(=O)NCc1ccccc1 [Example 17, L-Isoleucine, N-[1-(2-Phenyl-2-Oxoethyl)-L-Homoproline] Benzylamide] | < 50 | > 50 | – | –
6 | O=C(CN1CCC[C@H]1C(=O)N[C@H](C(=O)NCc1ccccc1)c1ccccc1)c1ccccc1 [Example 18] | < 50 | 6 | – | –
7 | CC[C@H](C)[C@H](NC(=O)[C@@H]1CCCN1CC(=O)c1ccc(F)cc1)C(=O)NCc1ccccc1 [Example 33, L-Isoleucine, N-[1-(2-(4-Fluorophenyl)-2-Oxoethyl)-L-Prolyl] Benzylamide] | 5 | 42 | – | –
8 | CC[C@H](C)[C@H](NC(=O)[C@@H]1CCCN1CC(=O)C(C)(C)C)C(=O)NCc1ccccc1 [Example 26, L-Isoleucine, N-[1-(2-tert-Butyl-2-Oxoethyl)-L-Proline] Benzylamlde] | < 50 | 58 | – | –
9 | L-Isoleucine, N-[1-(2-(2-Methoxyphenyl)-2-Oxoethyl)-L-Prolyl] Benzylamide [Example 10] | < 50 | < 50 | – | –
10 | CC[C@H](C)[C@H](NC(=O)[C@@H]1CCCN1CC(=O)N1CCN(c2ccccc2)CC1)C(=O)NCc1ccccc1 [Example 77, L-Isoleucine, N-[1-[2-(4-Phenylpiperazine)-2-Oxoethyl]-L-Prolyl] Benzylamlde] | < 5 | 28 | – | –
11 | CC[C@H](C)[C@H](NC(=O)[C@@H]1CCCN1CC(=O)c1ccc(Br)cc1)C(=O)NCc1ccccc1 [Example 34, L-Isoleucine, N-[1-(2-(4-Bromophenyl)-2-Oxoethyl)-L-Prolyl] Benzylamide] | < 5 | 40 | – | –
12 | CC[C@H](C)[C@H](NC(=O)[C@@H]1CCCN1CC(=O)N1CCCC1)C(=O)NCc1ccccc1 [Example 78, L-Isoleucine, N-[1-[2-(1-Pyrrolidine)-2-Oxoethyl]-L-Prolyl] Benzylamide] | > 5 | 100 | – | –
13 | CC[C@H](C)[C@H](NC(=O)[C@@H]1CCCN1CC(=O)c1cc(OC)ccc1OC)C(=O)NCc1ccccc1 [Example 27, L-Isoleucine, N-[1-(2-(2,5-Dimethoxyphenyl)-2-Oxoethyl)-L-Prolyl] Benzylamide] | 12 | 20 | – | –
14 | C/C=C/C=C/COC(=O)CN1CCC[C@H]1C(=O)N[C@H](C(=O)NCc1ccccc1)[C@@H](C)CC (relative stereo) [Example 12, L-Isoleucine, N-[1-(2-(trans,trans-Hexa-2,4-dienyl-1-oxy)-2-Oxoethyl)-L-Prolyl] Benzylamide] | 5.8 | 35 | – | –
15 | CC[C@H](C)[C@H](NC(=O)[C@@H]1CCCN1CC(=O)c1ccc(-c2ccccc2)cc1)C(=O)NC(C)(C)C [Example 52, L-Isoleucine, N-[1-(2-(Biphenyl-4-yl)-2-Oxoethyl)-L-Prolyl] tert-Butylamide] | – | – | < 50 | > 50
16 | CC[C@H](C)[C@H](NC(=O)[C@@H]1CCCN1CC(=O)c1cccc(OCc2ccccc2)c1)C(=O)NCc1ccccc1 [Example 31, L-Isoleucine, N-[1-(2-(3-Benzyloxyphenyl)-2-Oxoethyl)-L-Prolyl] Benzylamlde] | < 5 | 32 | – | –
17 | CC[C@H](C)[C@H](NC(=O)[C@@H]1CCCN1CC(=O)N1CCC2(CC1)OCCO2)C(=O)NCc1ccccc1 [Example 73, L-Isoleucine, N-[1-(2-(1,4-Dioxa-8-aza-spiro[4.5]dec-8-yl)-2-Oxoethyl)-L-Prolyl] Benzylamide] | < 5 | > 50 | – | –
18 | CC[C@H](C)[C@H](NC(=O)[C@@H]1CCCN1CC(=O)c1cccc(OC)c1)C(=O)NCc1ccccc1 [Example 20, L-Isoleucine, N-[1-(2-(3-Methoxyphenyl)-2-Oxoethyl)-L-Prolyl] Benzylamide] | < 50 | < 11 | – | –
19 | CC[C@H](C)[C@H](NC(=O)[C@@H]1CCCN1CC(=O)c1ccc(C)cc1)C(=O)NCc1ccccc1 [Example 14, L-Isoleucine, N-[1-(2-(4-Methylphenyl)-2-Oxoethyl)-L-Prolyl] Benzylamide] | < 50 | > 50 | – | –
20 | CC[C@H](C)[C@H](NC(=O)[C@@H]1CCCN1CC(=O)c1ccc(Cl)cc1)C(=O)NCc1ccccc1 [Example 13, L-Isoleucine, N-[1-(2-(4-Chlorophenyl)-2-Oxoethyl)-L-Prolyl] Benzylamlde] | < 50 | > 50 | – | –
21 | CC[C@H](C)[C@H](NC(=O)[C@@H]1CCCN1CC(=O)N1CCCCC1C)C(=O)NCc1ccccc1 (stereo partly drawn) [Example 75, L-Isoleuclne, N-[1-[2-(2-Methylpiperidine)-2-Oxoethyl]-L-Prolyl] Benzylamide] | < 5 | 37 | – | –
